Results on 39 compounds are retold here after patent US7425557B2, “Inhibitors of glycogen synthase kinase 3” (Novartis Vaccines and Diagnostics, Inc., priority 1998, dated 2008).

Each structure is given as a SMILES string.

What is called IC50 is the midpoint of a concentration-inhibition curve.

For the assay, the target named is human GSK3β (Homo sapiens, UniProt P49841). Nature of the assay: Screening for GSK3 inhibitory activity using a cell-free assay. The conditions noted are these: read-out: IC50 with respect to GSK3. The assay is classed as biochemical. In outline: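 Radiometric cell-free assay with recombinant human GSK3β phosphorylating a biotinylated peptide substrate for 3 h. Reactions were stopped with 50 μM ATP/20 mM EDTA and captured on streptavidin plates. Incorporated radiolabel was counted by scintillation and plotted against compound concentration.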
Sequence of human GSK3β (P49841 whole entry): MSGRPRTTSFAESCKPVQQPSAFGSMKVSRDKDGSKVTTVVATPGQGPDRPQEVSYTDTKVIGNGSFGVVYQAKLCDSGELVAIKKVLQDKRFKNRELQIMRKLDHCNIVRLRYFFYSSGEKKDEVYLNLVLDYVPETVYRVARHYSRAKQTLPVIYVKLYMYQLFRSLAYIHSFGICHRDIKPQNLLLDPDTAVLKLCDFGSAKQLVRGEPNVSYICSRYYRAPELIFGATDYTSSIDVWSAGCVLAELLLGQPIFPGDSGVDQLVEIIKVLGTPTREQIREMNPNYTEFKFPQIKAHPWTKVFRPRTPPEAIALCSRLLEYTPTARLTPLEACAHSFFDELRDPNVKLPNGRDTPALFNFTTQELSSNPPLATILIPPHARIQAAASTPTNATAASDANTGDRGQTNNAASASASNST
Regarding `NC(=O)c1ccc(-c2ccnc(NCc3ccc(Cl)cc3Cl)n2)cc1` [4-(2-{[(2,4-dichlorophenyl)methyl]-amino}pyrimidin-4-yl)benzamide], the IC50 was at most 10 µM.

`CN1CC(=O)N(c2cnc(NCCNc3ccc([N+](=O)[O-])cn3)nc2-c2ccc(Cl)cc2Cl)C(=O)C1` [1-[4-(2,4-dichlorophenyl)-2-({2-[(5-nitro(2-pyridyl))amino]ethyl}amino)pyrimidin-5-yl]-4-methylpiperazine-2,6-dione]: the half-inhibitory concentration (IC50) is at most 1 µM.

For `Cc1nc(NCCNc2ccc([N+](=O)[O-])cn2)ncc1C(=O)NC(Cc1ccccc1)C(N)=O` (stereo not drawn) [N-(1-carbamoyl-2-phenylethyl)[4-methyl-2-({2-[(5-nitro(2-pyridyl))amino]ethyl}amino)pyrimidin-5-yl]carboxamide], the 50% inhibitory concentration (IC50) is at most 10 µM.

On to `O=C(O)c1c(-c2ccccc2)nc(NCCNc2ccc([N+](=O)[O-])cn2)nc1-c1ccc([N+](=O)[O-])cc1` [2-({2-[(5-nitro(2-pyridyl))amino]ethyl}-amino)-6-(4-nitrophenyl)-4-phenylpyrimidine-5-carboxylic acid], for which the half-maximal inhibitory concentration (IC50) was at most 10 µM.

Regarding `CCOC(=O)c1cnc(NCCNc2ncc([N+](=O)[O-])c(N)n2)nc1-c1ccc(C#N)cc1` [ethyl 2-({2-[(4-amino-5-nitropyrimidin-2-yl)amino]ethyl}amino)-4-(4-cyanophenyl)pyrimidine-5-carboxylate], the IC50 was at most 1 µM.

For the compound `N#Cc1ccc(-c2nc(NCCNc3ccc([N+](=O)[O-])cn3)nc(-c3cccc([N+](=O)[O-])c3)c2C(=O)O)cc1` [4-(4-cyanophenyl)-2-({2-[(5-nitro(2-pyridyl))amino]ethyl}amino)-6-(3-nitrophenyl)pyrimidine-5-carboxylic acid], the IC50 was at most 1 µM.

Take `CN(C)CCOC(=O)c1cnc(NCCNc2ccc([N+](=O)[O-])cn2)nc1-c1ccc(C#N)cc1`: the IC50 was at most 1 µM.

With `N#Cc1ccc(-c2nc(NCCNc3ccc([N+](=O)[O-])cn3)ncc2C(=O)O)cc1` [4-(4-cyanophenyl)-2-({2-[(5-nitro(2-pyridyl))amino]ethyl}amino)pyrimidine-5-carboxylic acid], the IC50 is at most 1 µM.

With `NC(=O)c1ccc(-c2ccnc(NCc3cccc(Br)c3)n2)cc1` [4-(2-{[(3-bromophenyl)methyl]amino}pyrimidin-4-yl)benzamide], the concentration for half-maximal inhibition (IC50) was at most 10 µM.

For the compound `Cc1nc(C)c(-c2ccnc(NCCNc3ccc([N+](=O)[O-])cn3)n2)s1` [[4-(2,4-dimethyl(1,3-thiazol-5-yl))pyrimidin-2-yl]{2-[(5-nitro(2-pyridyl))-amino]ethyl}amine], the IC50 was at most 10 µM.

As for `NC(=O)c1ccc(-c2ccnc(NCCc3ccc([N+](=O)[O-])cc3)n2)cc1` [4-(2-{[2-(4-nitrophenyl)ethyl]amino}pyrimidin-4-yl)benzamide], the IC50 is at most 10 µM.

Consider `O=C(NCc1ccccc1)c1ccc(-c2ccnc(NCCc3ccccn3)n2)cc1` [N-benzyl(4-{2-[(2-(2-pyridyl)ethyl)amino]pyrimidin-4-yl}phenyl)carboxamide], for which the IC50 was at most 10 µM.

As for `O=C(NCc1ccccc1)c1ccc(-c2ccnc(NCCNc3ccc([N+](=O)[O-])cn3)n2)cc1` [{4-[2-({2-[(5-nitro(2-pyridyl))amino]ethyl}amino)pyrimidin-4-yl]phenyl}-N-benzylcarboxamide], the 50% inhibitory concentration (IC50) is at most 10 µM.

Turning to `N#Cc1ccc(NCCNc2ncc(-n3cc(Cl)ccc3=O)c(-c3ccc(Cl)cc3Cl)n2)nc1`, the half-maximal inhibitory concentration (IC50) was at most 1 µM.

Consider `CN(C)C(=O)c1cnc(NCCNc2ccc([N+](=O)[O-])cn2)nc1-c1ccc(C#N)cc1` [[4-(4-cyanophenyl)-2-({2-[(5-nitro(2-pyridyl))amino]ethyl}-amino)pyrimidin-5-yl]-N,N-dimethylcarboxamide], for which the IC50 is at most 1 µM.

For the compound `Nc1nc(NCCNc2ncc(C(=O)O)c(-c3ccc(Cl)cc3Cl)n2)ccc1[N+](=O)[O-]` [2-({2-[(6-amino-5-nitro(2-pyridyl))amino]ethyl}amino)-4-(2,4-dichlorophenyl)pyrimidine-5-carboxylic acid], the half-inhibitory concentration (IC50) was at most 1 µM.

Consider `O=C(NCc1cccc(I)c1)c1ccc(-c2ccnc(NCCNc3ccc([N+](=O)[O-])cn3)n2)cc1` [N-[(3-iodophenyl)methyl]{4-[2-({2-[(5-nitro(2-pyridyl))amino]ethyl}amino)pyrimidin-4-yl]phenyl}carboxamide], for which the half-maximal inhibitory concentration (IC50) was at most 10 µM.

For `CCOC(=O)c1cnc(NCCNc2ccc([N+](=O)[O-])cc2)nc1-c1ccc(C#N)cc1` [ethyl 4-(4-cyanophenyl)-2-({2-[(4-nitrophenyl)amino]ethyl}amino)-pyrimidine-5-carboxylate], the half-maximal inhibitory concentration (IC50) was at most 1 µM.

`Nc1nc(NCCNc2ncc(N3C(=O)c4cccnc4C3=O)c(-c3ccc(Cl)cc3Cl)n2)ccc1[N+](=O)[O-]`: the IC50 is at most 1 µM.

In the case of `O=C(O)c1c(-c2ccc([N+](=O)[O-])cc2)nc(NCCNc2ccc([N+](=O)[O-])cn2)nc1-c1ccc(C(F)(F)F)cc1` [2-({2-[(5-nitro(2-pyridyl))amino]ethyl}amino)-6-(4-nitrophenyl)-4-[4-(trifluoromethyl)phenyl]pyrimidine-5-carboxylic acid], the IC50 is at most 10 µM.

On to `COc1cccc(CCNc2nccc(-c3ccc(C(=O)NCc4cccc(Br)c4)cc3)n2)c1` [N-[(3-bromophenyl)methyl][4-(2-{[2-(3-methoxyphenyl)ethyl]amino}pyrimidin-4-yl)phenyl]carboxamide], for which the IC50 is at most 10 µM.

For `COc1ccc(CNc2nccc(-c3ccc(C(N)=O)cc3)n2)cc1` [4-(2-{[(4-methoxyphenyl)methyl]amino}pyrimidin-4-yl)benzamide], the concentration for half-maximal inhibition (IC50) is at most 10 µM.

On to `N#Cc1ccc(-c2nc(NCCNc3ccc([N+](=O)[O-])cn3)ncc2C(=O)NCc2ccncc2)cc1` [[4-(4-cyanophenyl)-2-({2-[(5-nitro(2-pyridyl))-amino]ethyl}amino)pyrimidin-5-yl]-N-(4-pyridylmethyl)carboxamide], for which the IC50 was at most 1 µM.

Consider `N#Cc1ccc(-c2nc(NCCNc3ccc([N+](=O)[O-])cn3)ncc2C(=O)NCC(N)=O)cc1` [N-(carbamoylmethyl)[4-(4-cyanophenyl)-2-({2-[(5-nitro(2-pyridyl))amino]ethyl}amino)pyrimidin-5-yl]carboxamide], for which the half-maximal inhibitory concentration (IC50) is at most 1 µM.

In the case of `CCOC(=O)c1cnc(NCCNc2ccc([N+](=O)[O-])c(N)n2)nc1-c1ccc(C#N)cc1` [ethyl 2-({2-[(6-amino-5-nitro(2-pyridyl))amino]ethyl}amino)-4-(4-cyanophenyl)pyrimidine-5-carboxylate], the concentration for half-maximal inhibition (IC50) is at most 1 µM.

In the case of `COc1ccc(-c2nc(NCCNc3ccc([N+](=O)[O-])cn3)nc(-c3ccc([N+](=O)[O-])cc3)c2C(=O)O)cc1` [4-(4-methoxyphenyl)-2-({2-[(5-nitro(2-pyridyl))amino]ethyl}-amino)-6-(4-nitrophenyl)pyrimidine-5-carboxylic acid], the half-inhibitory concentration (IC50) was at most 10 µM.

On to `NC(=O)c1ccc(-c2ccnc(NCc3cc(C(F)(F)F)cc(C(F)(F)F)c3)n2)cc1` [4-[2-({[3,5-bis(trifluoromethyl)phenyl]methyl}amino)pyrimidin-4-yl]benzamide], for which the IC50 is at most 10 µM.

On to `NC(=O)c1ccc(-c2ccnc(NCCNc3ccccn3)n2)cc1` [4-(2-{[2-(2-pyridylamino)ethyl]-amino}pyrimidin-4-yl)benzamide], for which the half-maximal inhibitory concentration (IC50) is at most 1 µM.

`NC(=O)c1ccc(-c2ccnc(NCc3cc(Cl)cc(Cl)c3)n2)cc1` [4-(2-{[(3,5-dichlorophenyl)methyl]amino}pyrimidin-4-yl)benzamide]: the IC50 is at most 10 µM.

Turning to `N#Cc1ccc(-c2nc(NCCNc3ccc([N+](=O)[O-])cn3)ncc2C(=O)OCCN2CCOCC2)cc1` [2-morpholin-4-ylethyl 4-(4-cyanophenyl)-2-({2-[(5-nitro(2-pyridyl))amino]ethyl}-amino)pyrimidine-5-carboxylate], the IC50 is at most 1 µM.

In the case of `CCOC(=O)c1cnc(NCCNc2ccc([N+](=O)[O-])cn2)nc1-c1ccc(Cl)cc1` [ethyl 4-(4-chlorophenyl)-2-({2-[(5-nitro(2-pyridyl))amino]ethyl}amino)pyrimidine-5-carboxylate], the 50% inhibitory concentration (IC50) was at most 1 µM.

As to `CCOC(=O)c1cnc(NCCc2cccc(OC)c2)nc1-c1ccc(C#N)cc1` [ethyl 4-(4-cyanophenyl)-2-{[2-(3-methoxyphenyl)ethyl]amino}pyrimidine-5-carboxylate], the IC50 was at most 10 µM.

For `Nc1nc(NCCNc2ccc(-n3ccnc3)c(-c3ccc(Cl)cc3Cl)n2)ccc1[N+](=O)[O-]` [{2-[(6-amino-5-nitro(2-pyridyl))amino]ethyl}[6-(2,4-dichlorophenyl)-5-imidazolyl(2-pyridyl)]amine], the IC50 is at most 1 µM.

`O=[N+]([O-])c1ccc(NCCNc2ncc(CN3CCOCC3)c(-c3ccc(Cl)cc3Cl)n2)nc1` [[4-(2,4-dichlorophenyl)-5-(morpholin-4-ylmethyl)pyrimidin-2-yl]{2-[(5-nitro(2-pyridyl))amino]ethyl}amine]: the IC50 is at most 1 µM.

Consider `CC(=O)Nc1cccc(-c2cccc(CNc3nccc(-c4ccc(C(N)=O)cc4)n3)c2)c1` [4-{2-[({3-[3-(acetylamino)phenyl]phenyl}methyl)amino]pyrimidin-4-yl}benzamide], for which the IC50 was at most 10 µM.

As for `O=[N+]([O-])c1ccc(NCCNc2ncc(-c3ncc[nH]3)c(-c3ccc(Cl)cc3)n2)nc1` [[4-(4-chlorophenyl)-5-imidazol-2-ylpyrimidin-2-yl]{2-[(5-nitro(2-pyridyl))amino]ethyl}amine], the half-inhibitory concentration (IC50) is at most 1 µM.

For `O=C(NCC1CCCO1)c1ccc(-c2ccnc(NCCNc3ccc([N+](=O)[O-])cn3)n2)cc1` (stereo not drawn) [{4-[2-({2-[(5-nitro(2-pyridyl))amino]ethyl}amino)pyrimidin-4-yl]phenyl}-N-(oxolan-2-ylmethyl)carboxamide], the concentration for half-maximal inhibition (IC50) was at most 10 µM.

Turning to `NC(=O)c1ccc(-c2ccnc(NCCCOc3ccc4ccccc4c3)n2)cc1` [4-{2-[(3-(2-naphthyloxy)propyl)amino]pyrimidin-4-yl}benzamide], the half-inhibitory concentration (IC50) is at most 10 µM.

Consider `O=C(NCc1ccc(F)c(F)c1)c1ccc(-c2ccnc(NCCNc3ccc([N+](=O)[O-])cn3)n2)cc1` [N-[(3,4-difluorophenyl)methyl]{4-[2-({2-[(5-nitro(2-pyridyl))amino]ethyl}amino)pyrimidin-4-yl]phenyl}carboxamide], for which the IC50 is at most 10 µM.
